# Results taken from patent US20040126437A1, “Typing natural products” (priority 2000, published 2004).
# Tests used:
# B.subtilis = conditions: cited from earlier work
# Microsporeum gypseum = conditions: cited from earlier work
# Pseudomonas aeruginosa [1] = test: Antibacterial activity, inhibition halos in culture; type: cell-based
# From the text: (§1) The insulated compounds DCBEN, DHCA, E and mixture of E+DPB have their antibacterial properties tested in cultures of E.coli, Pseudomonas aeruginosa, Staphylococcus aureus and Streptococcus faecalis. Inhibition halos (in mm) and the obtained data recorded as in FIG. 1.
# (§2) Antibacterial activity of the compounds K, G1, G2 e L2 has been evaluated in cultures of E.coli, Pseudomonas aeruginosa, Staphylococcus aureus and Streptococcus faecalis. Inhibition halos have been measured (mm) and the data recorded as in FIG. 1. S.aureus, S.faecalis e E.coli, are sensitive to the tested compounds, just varying the halos, the compound G2 has the most toxity in cultures of S.aureus e S.faecalis. None of the tested compounds had effect in P.aeruginosa.
# Streptococcus faecalis = test: as above; type: cell-based; conditions: Streptococcus faecalis culture
# From the text: as §1, §2
# Escherichia coli = test: as above; type: cell-based
# From the text: as §1, §2
# Staphylococcus aureus [2] = test: as above; type: cell-based; conditions: Staphylococcus aureus culture
# From the text: as §1, §2
# Pseudomonas aeruginosa [3] = conditions: cited from earlier work
# [4] = tested on: uterus colon carcinoma (line L5-26); conditions: uterus colon carcinoma line L5-26; cited from earlier work
# [5] = tested on: Thermoactinomyces intermedius; conditions: cited from earlier work
# Staphylococcus aureus [6] = conditions: cited from earlier work
# Mycobacterium smegmatis = conditions: cited from earlier work
# Mycobaterium phlei = conditions: cited from earlier work
# [7] = tested on: Staphylococcus epidermidis; conditions: cited from earlier work
# [8] = tested on: Micrococcus lysodeikticus; conditions: cited from earlier work
# A.benhamiae = conditions: cited from earlier work
# Corynebacterium equii = conditions: cited from earlier work
# [9] = tested on: fibrosarcoma (line HT-1080); conditions: fibrosarcoma line HT-1080; cited from earlier work
# T. cruzi trypomastigotes = test: Effects against T. cruzi trypomastigotes cultures; type: cell-based, Trypanosoma cruzi
# Description: FIG. 2 are recorded ID50 data related to trypomastigotes cultures (one of the growing stages of Trypanosoma cruzi (T.cruzi)) also to the compounds DCBEN, DHCA, E and mixture E+DPB and the effects of said compounds extracted from propolis trypomastigotes of T.cruzi (in mg/mL). […] The same result for Violet Crystal is 0.205 mg/mL, as previously mentioned. The results for insulated compounds are greater than the Violet Crystal.
smiles,measurement,setting,value
"CC(C)=CCc1cc(C=CC(=O)O)cc(CC=C(C)C)c1O [DHCA, 3,5-diprenyl-4-hydroxycinnamic acid]",CIM,B.subtilis,31.3 µg/mL
same,MIC,Microsporeum gypseum,"7,8 μg/mL"
same,"Antibacterial activty, inhibition halo",Pseudomonas aeruginosa [1],Ø
same,"Antibacterial activty, inhibition halo",Streptococcus faecalis,+ (+ halo < or = to 8 mm)
same,Antibacterial effect in words,Escherichia coli; E.coli culture,did not present inhibition activity
same,"Antibacterial activty, inhibition halo",Escherichia coli; Escherichia coli culture,Ø
same,"Antibacterial activty, inhibition halo",Staphylococcus aureus [2],+ (+ halo < or = to 8 mm)
same,MIC,Pseudomonas aeruginosa [3],31.3 µg/mL
same,ED50 (cytotoxic dosage—50%),[4],"59,32 μg/mL"
same,MIC,[5],62.5 µg/mL
same,MIC,Staphylococcus aureus [6],62.5 µg/mL
same,MIC,Mycobacterium smegmatis,31.3 µg/mL
same,MIC,Mycobaterium phlei,62.5 µg/mL
same,CIM,[7],62.5 µg/mL
same,CIM,[8],31.3 µg/mL
same,MIC,A.benhamiae,"15,6 μg/mL"
same,CIM,Corynebacterium equii,31.3 μg/m/L
same,ED50 (cytotoxic dosage—50%),[9],45.47 µg/mL
same,ID50/24 h,T. cruzi trypomastigotes,932 ± 46 µg/mL
